From ChEMBL document CHEMBL1649270, “ST-246 inhibits in vivo poxvirus dissemination, virus shedding, and systemic disease manifestation” (2009)
Active and inactive are the calls of the source. The calls are words filed in the database; no cut-off is given here.

What was measured:
Vaccinia virus WR [1] = assay: Antiviral activity against Vaccinia virus WR ATCC VR-1354 infected through dermal scarification route in BALB/c mouse assessed as protection against virus-induced systemic disease symptoms at 100 mg/kg, po qd measured after 9 days postinfection; assay type: functional, organism-based; set-up: dose 100 mg/kg
Vaccinia virus WR [2] = assay: Antiviral activity against Vaccinia virus WR ATCC VR-1354 infected through intravenous route in BALB/c mouse assessed as reduction of viral load in liver at 100 mg/kg, po qd measured after 14 days postinfection by RT-PCR analysis relative to control; assay type: functional, organism-based; set-up: dose 100 mg/kg
Vaccinia virus WR [3] = assay: Antiviral activity against Vaccinia virus WR ATCC VR-1354 infected through percutaneous route in BALB/c mouse assessed as reduction of viral load in spleen at 100 mg/kg, po qd for 1 day by RT-PCR analysis relative to control; assay type: functional
Vaccinia virus WR [4] = assay: Antiviral activity against Vaccinia virus WR ATCC VR-1354 in african green monkey BSC-40 cells infected with 7 day postinfection nasal fluid from 100 mg/kg, po qd compound treated BALB/c mouse infected through percutaneous route assessed as reduction of viral attachment to cells by plaque titration assay; assay type: functional
Vaccinia virus WR [5] = assay: Antiviral activity against Vaccinia virus WR ATCC VR-1354 infected through dermal scarification route in BALB/c mouse assessed as reduction of viral load in spleen at 100 mg/kg, po qd measured after 5 days postinfection by RT-PCR analysis relative to control; assay type: functional
Vaccinia virus WR [6] = assay: Antiviral activity against Vaccinia virus WR ATCC VR-1354 infected through percutaneous route in BALB/c mouse assessed as reduction of viral load in brain at 100 mg/kg, po qd measured after 7 days postinfection by RT-PCR analysis relative to control; assay type: functional, organism-based; set-up: dose 100 mg/kg
Vaccinia virus WR [7] = assay: Antiviral activity against Vaccinia virus WR ATCC VR-1354 infected through intravenous route in BALB/c mouse assessed as reduction of viral load in brain at 100 mg/kg, po qd measured after 3 days postinfection by RT-PCR analysis relative to control; assay type: functional
Vaccinia virus WR [8] = assay: Antiviral activity against Vaccinia virus WR ATCC VR-1354 infected through percutaneous route in BALB/c mouse assessed as reduction of viral load in spleen at 100 mg/kg, po qd measured after 3 days postinfection by RT-PCR analysis relative to control; assay type: functional
Vaccinia virus WR [9] = assay: Antiviral activity against Vaccinia virus WR ATCC VR-1354 infected through dermal scarification route in BALB/c mouse assessed as reduction of viral load in blood at 100 mg/kg, po qd measured after 14 days postinfection by RT-PCR analysis relative to control; assay type: functional, organism-based; set-up: dose 100 mg/kg
Vaccinia virus WR [10] = assay: Antiviral activity against Vaccinia virus WR ATCC VR-1354 infected through percutaneous route in BALB/c mouse assessed as reduction of viral load in blood at 100 mg/kg, po qd measured after 13 days postinfection by RT-PCR analysis relative to control; assay type: functional, organism-based; set-up: dose 100 mg/kg
Vaccinia virus WR [11] = assay: Antiviral activity against Vaccinia virus WR ATCC VR-1354 infected through percutaneous route in BALB/c mouse assessed as protection against weight loss at 100 mg/kg, po qd for 5 to 14 days measured on day 8; assay type: functional
Vaccinia virus WR [12] = assay: Antiviral activity against Vaccinia virus WR ATCC VR-1354 infected through intraperitoneal route in BALB/c mouse assessed as reduction of viral load in lung at 100 mg/kg, po qd measured after 5 days postinfection by RT-PCR analysis relative to control; assay type: functional, organism-based; set-up: dose 100 mg/kg
Vaccinia virus WR [13] = assay: Antiviral activity against Vaccinia virus WR ATCC VR-1354 infected through percutaneous route in BALB/c mouse assessed as reduction of viral load in lungs at 100 mg/kg, po qd measured after 5 days postinfection by RT-PCR analysis relative to control; assay type: functional
Vaccinia virus WR [14] = assay: Antiviral activity against Vaccinia virus WR ATCC VR-1354 infected through intraperitoneal route in BALB/c mouse assessed as reduction of viral load in blood at 100 mg/kg, po qd measured after 5 days postinfection by RT-PCR analysis relative to control; assay type: functional, organism-based; set-up: dose 100 mg/kg
Vaccinia virus WR [15] = assay: Antiviral activity against Vaccinia virus WR ATCC VR-1354 infected through percutaneous route in BALB/c mouse assessed as protection against virus-induced death at 100 mg/kg, po qd administered 3 days after postinfection measured on day 6; assay type: functional
Vaccinia virus WR [16] = assay: Antiviral activity against Vaccinia virus WR ATCC VR-1354 infected through dermal scarification route in BALB/c mouse assessed as reduction of viral load in blood at 100 mg/kg, po qd measured after 5 days postinfection by RT-PCR analysis relative to control; assay type: functional
Vaccinia virus WR [17] = assay: Antiviral activity against Vaccinia virus WR ATCC VR-1354 infected through intraperitoneal route in BALB/c mouse assessed as reduction of viral load in liver at 100 mg/kg, po qd measured after 5 days postinfection by RT-PCR analysis relative to control; assay type: functional, organism-based; set-up: dose 100 mg/kg
Vaccinia virus WR [18] = assay: Antiviral activity against Vaccinia virus WR ATCC VR-1354 infected through percutaneous route in BALB/c mouse assessed as reduction of viral load in spleen at 100 mg/kg, po qd measured after 5 days postinfection by RT-PCR analysis relative to control; assay type: functional
Vaccinia virus WR [19] = assay: Antiviral activity against Vaccinia virus WR ATCC VR-1354 infected through dermal scarification route in BALB/c mouse assessed as reduction of viral load in liver at 100 mg/kg, po qd measured after 5 days postinfection by RT-PCR analysis relative to control; assay type: functional
Vaccinia virus WR [20] = assay: Antiviral activity against Vaccinia virus WR ATCC VR-1354 infected through intraperitoneal route in BALB/c mouse assessed as reduction of viral load in brain at 100 mg/kg, po qd measured after 3 days postinfection by RT-PCR analysis relative to control; assay type: functional, organism-based; set-up: dose 100 mg/kg
Vaccinia virus WR [21] = assay: Antiviral activity against Vaccinia virus WR ATCC VR-1354 infected through dermal scarification route in BALB/c mouse assessed as reduction of viral load in liver at 100 mg/kg, po qd measured after 14 days postinfection by RT-PCR analysis relative to control; assay type: functional, organism-based; set-up: dose 100 mg/kg
Vaccinia virus WR [22] = assay: Antiviral activity against Vaccinia virus WR ATCC VR-1354 infected through dermal scarification route in BALB/c mouse assessed as reduction of viral load in brain at 100 mg/kg, po qd measured after 5 days postinfection by RT-PCR analysis relative to control; assay type: functional
Vaccinia virus WR [23] = assay: Antiviral activity against Vaccinia virus WR ATCC VR-1354 infected through subcutaneous route in BALB/c mouse assessed as protection against virus-induced systemic disease symptoms at 100 mg/kg, po qd measured after 9 days postinfection; assay type: functional, organism-based; set-up: dose 100 mg/kg
Vaccinia virus WR [24] = assay: Antiviral activity against Vaccinia virus WR ATCC VR-1354 infected through percutaneous route in BALB/c mouse assessed as reduction of viral load in blood at 100 mg/kg, po qd measured after 3 days postinfection by RT-PCR analysis relative to control; assay type: functional
Vaccinia virus WR [25] = assay: Antiviral activity against Vaccinia virus WR ATCC VR-1354 in african green monkey BSC-40 cells infected with 7 day postinfection BAL fluid from 100 mg/kg, po qd compound treated BALB/c mouse infected through percutaneous route assessed as reduction of viral attachment to cells by plaque titration assay; assay type: functional

Compound: O=C(NN1C(=O)[C@@H]2[C@@H]3C=C[C@@H]([C@H]4C[C@@H]34)[C@@H]2C1=O)c1ccc(C(F)(F)F)cc1 [TECOVIRIMAT]
- Activity (Vaccinia virus WR [1]): Active
- Activity (Vaccinia virus WR [2]): Active
- fold change (FC) (Vaccinia virus WR [3]): 18
- fold change (FC) (Vaccinia virus WR [4]): 22
- fold change (FC) (Vaccinia virus WR [5]): 16
- Activity (Vaccinia virus WR [6]): Active
- fold change (FC) (Vaccinia virus WR [7]): 23
- fold change (FC) (Vaccinia virus WR [8]): 300
- Activity (Vaccinia virus WR [9]): Active
- Activity (Vaccinia virus WR [10]): Active
- Activity (Vaccinia virus WR [11]): >70%
- Activity (Vaccinia virus WR [12]): Active
- fold change (FC) (Vaccinia virus WR [13]): 3.5
- Activity (Vaccinia virus WR [14]): Active
- Activity (Vaccinia virus WR [15]): 100%
- fold change (FC) (Vaccinia virus WR [16]): 260
- Activity (Vaccinia virus WR [17]): Active
- fold change (FC) (Vaccinia virus WR [18]): 44000
- fold change (FC) (Vaccinia virus WR [19]): 8
- Activity (Vaccinia virus WR [20]): inactive
- Activity (Vaccinia virus WR [21]): Active
- fold change (FC) (Vaccinia virus WR [22]): 3
- Activity (Vaccinia virus WR [23]): Active
- fold change (FC) (Vaccinia virus WR [24]): 8
- fold change (FC) (Vaccinia virus WR [25]): 528
